Results reported in the NIST ThermoML archive (doi:10.1016/j.fluid.2010.08.022).

Details: 101.33 kPa; for speed of sound: Sing-around technique in a fixed-path interferometer; for mass density: Vibrating tube method; for viscosity: 368.15 K, Visco Elite L rheometer

CCCCCCCC/C=C\CCCCCCCC(=O)[O-].OCC[NH2+]CCO [bis(2-hydroxyethyl)ammonium oleate]
Liquid crystal of unknown type
Details	mass density [kg/m3]	speed of sound [m/s]
310.91 K	956.801	1479.3
311.16 K	956.637	1478.5
311.41 K	956.474	1477.7
311.66 K	956.311	1476.9
311.91 K	956.146	1476.1
312.16 K	955.984	1475.3
312.41 K	955.821	1474.5
312.66 K	955.658	1473.7
312.91 K	955.495	1472.9
313.16 K	955.331	1472.1
313.4 K	955.169	1471.3
313.66 K	955.006	1470.5
313.91 K	954.842	1469.7
314.16 K	954.679	1468.9
314.41 K	954.514	1468.2
314.66 K	954.352	1467.4
314.91 K	954.186	1466.6
315.16 K	954.024	1465.8
315.41 K	953.862	1465
315.65 K	953.699	1464.2
315.91 K	953.533	1463.4
316.16 K	953.369	1462.7
316.41 K	953.207	1461.9
316.66 K	953.043	1461.1
316.91 K	952.88	1460.3
317.16 K	952.716	1459.5
317.41 K	952.551	1458.8
317.66 K	952.388	1458
317.91 K	952.225	1457.2
318.16 K	952.061	1456.4
318.41 K	951.897	1455.6
318.66 K	951.733	1454.9
318.91 K	951.57	1454.1
319.16 K	951.406	1453.3
319.41 K	951.243	1452.5
319.66 K	951.078	1451.7
319.91 K	950.913	1451
320.16 K	950.75	1450.2
320.41 K	950.587	1449.4
320.66 K	950.422	1448.6
320.91 K	950.258	1447.8
321.16 K	950.094	1447.1
321.41 K	949.931	1446.3
321.66 K	949.766	1445.5
321.91 K	949.603	1444.7
322.16 K	949.437	1444
322.41 K	949.275	1443.2
322.65 K	949.109	1442.4
322.91 K	948.946	1441.6
323.16 K	948.781	1440.8
323.41 K	948.617	1440.1
323.66 K	948.452	1439.3
323.91 K	948.289	1438.5
324.16 K	948.125	1437.8
324.41 K	947.96	1437
324.66 K	947.796	1436.2
324.9 K	947.631	1435.4
325.16 K	947.466	1434.7
325.41 K	947.302	1433.9
325.66 K	947.136	1433.2
325.91 K	946.972	1432.4
326.16 K	946.806	1431.6
326.41 K	946.644	1430.8
326.66 K	946.479	1430.1
326.91 K	946.315	1429.3
327.16 K	946.149	1428.5
327.41 K	945.984	1427.8
327.66 K	945.82	1427
327.91 K	945.656	1426.2
328.16 K	945.489	1425.5
328.41 K	945.323	1424.7
328.66 K	945.159	1423.9
328.91 K	944.994	1423.2
329.16 K	944.829	1422.4
329.41 K	944.663	1421.6
329.66 K	944.498	1420.8
329.91 K	944.332	1420.1
330.16 K	944.168	1419.3
330.41 K	944.002	1418.5
330.66 K	943.835	1417.8
330.91 K	943.671	1417
331.16 K	943.506	1416.3
331.4 K	943.341	1415.5
331.66 K	943.175	1414.7
331.91 K	943.009	1414
332.16 K	942.844	1413.2
332.41 K	942.679	1412.5
332.66 K	942.512	1411.7
332.91 K	942.347	1410.9
333.16 K	942.18	1410.2
333.41 K	942.013	1409.4
333.66 K	941.847	1408.7
333.91 K	941.682	1407.9
334.16 K	941.516	1407.2
334.41 K	941.349	1406.4
334.66 K	941.183	1405.6
334.91 K	941.018	1404.9
335.16 K	940.851	1404.1
335.41 K	940.685	1403.4
335.66 K	940.519	1402.6
335.91 K	940.352	1401.8
336.16 K	940.185	1401.1
336.41 K	940.019	1400.3
336.66 K	939.852	1399.6
336.91 K	939.686	1398.8
337.16 K	939.519	1398
337.4 K	939.352	1397.3
337.66 K	939.185	1396.5
337.91 K	939.017	1395.8
338.16 K	938.852	1395
338.41 K	938.684	1394.3
338.66 K	938.517	1393.5
338.91 K	938.351	1392.8
339.16 K	938.182	1392
339.41 K	938.014	1391.2
339.66 K	937.846	1390.5
339.91 K	937.68	1389.7
340.15 K	937.513	1389
340.41 K	937.345	1388.2
340.66 K	937.177	1387.5
340.91 K	937.009	1386.7
341.16 K	936.844	1386
341.41 K	936.674	1385.2
341.65 K	936.507	1384.5
341.91 K	936.339	1383.8
342.16 K	936.171	1383
342.41 K	936.003	1382.3
342.66 K	935.836	1381.5
342.9 K	935.668	1380.8
343.15 K	935.491	1380.1

Details	viscosity [mPa·s]
Liquid	37.2
Liquid crystal of unknown type	37.2
